Values of other authors in US20040235767A1, “Anti-angiogenic and immunotherapeutic compositions for cancer treatment” (priority 2004, published 2004).

Test system: large tumours
Conditions: previously reported

Cc1ccc2c(=O)c3cccc(CC(=O)O)c3oc2c1C [DMXAA, 5,6-dimethylxanthenone-4-acetic acid]
effect on large tumours in combination with B7-1-mediated immunotherapy: eradication of large tumours
